The values that follow come from ChEMBL document CHEMBL1150333, “Isolation and antimalarial activity of new morphinan alkaloids on Plasmodium yoelii liver stage” (Bioorg Med Chem, 2008).

The source made the active and inactive calls. The calls are words filed in the database; no cut-off is given here. Bounds are passed on as bounds.

A short description of series [1]: Cytotoxicity against primary mouse hepatocytes after 48 hrs by neutral red assay. The class given is cell-based, Hepatocyte. Particulars: read-out: TC50.
Series [2] concerns Plasmodium yoelii yoelii. The series can be described thus: Antimalarial activity against Plasmodium yoelii 265 sporozoites in primary mice (Mus musculus) hepatocytes after 48 hrs. The class given is functional, organism-based. The settings on record: 265 BY, Hepatocyte.
Series [3] can be described thus: Selectivity index, ratio of TC50 for primary mice (Mus musculus) hepatocytes to IC50 for Plasmodium yoelii yoelii 265 BY liver stage sporozoites. Set-up: species or system Hepatocyte.
Series [4] concerns Plasmodium yoelii yoelii. The series can be described thus: Antimalarial activity against Plasmodium yoelii 265 BY liver stage sporozoites in primary mice (Mus musculus) hepatocytes at 38.6 uM after 48 hrs. The class given is functional. Particulars: Hepatocyte.
Series [5] deals with Plasmodium yoelii yoelii. The series can be described thus: Antimalarial activity against Plasmodium yoelii 265 BY liver stage sporozoites in primary mice (Mus musculus) hepatocytes at 7.1 uM after 48 hrs. The class given is functional, organism-based. Particulars: Hepatocyte.

A word on the IC50: it is the concentration that inhibits the measured activity by half. Read a high IC50 as lower potency. What is called inhibition in vivo is how much of the control response was suppressed.

Turning to `COC1=C2[C@H]3NCC[C@]2(C[C@H](O)[C@@H]1O)c1c(ccc(OC)c1O)[C@@H]3O[C@@H]1O[C@H](CO)[C@@H](O)[C@H](O)[C@H]1O`, in series [1], the CC50 at 48 h is greater than 390 µM. For the same compound, the half-maximal inhibitory concentration (IC50) in the series on Plasmodium yoelii yoelii [2] is greater than 390 µM.
For `COC1=C2[C@H]3NCC[C@]2(C[C@H](O)[C@@H]1O)c1c(ccc(OC)c1O)[C@@H]3O`, the CC50 at 48 h in series [1] came out at 388 µM. This compound came in with an IC50 with Plasmodium yoelii yoelii [2] of 16.1 µM. The Ratio in series [3] amounted to 24.1.
In the series on Plasmodium yoelii yoelii [4], `COc1cc(NC(C)CCCN)c2ncccc2c1` (stereo unspecified) [PRIMAQUINE] registered an inhibition in vivo at 38.6 µM of 80%. In series [1], the CC50 at 48 h was found to be 70.5 µM. The compound also came in with an IC50 in the series with Plasmodium yoelii yoelii [2] of 0.64 µM. For the same compound, the Ratio in series [3] turned out to be 110.
In the case of `COC1=C2[C@@H]3Cc4ccc(OC)c(O)c4[C@]2(CCN3)C[C@H](O)[C@@H]1O` [SINOCOCULINE], the CC50 at 48 h in series [1] worked out at 62.2 µM. The same compound registered a concentration for half-maximal inhibition (IC50) in the series on Plasmodium yoelii yoelii [2] of 4.5 µM. For the same compound, the Ratio in series [3] is 13.8.
Take `COC1=C2[C@H]3NCC[C@]2(C[C@H](O)[C@@H]1O)c1c(ccc(OC)c1O)[C@H]3O` [TAZOPSINE]: in the series on Plasmodium yoelii yoelii [5], the result was Active. In series [1], the CC50 at 48 h stood at 43.7 µM. In addition, the IC50 in the series with Plasmodium yoelii yoelii [2] came out at 3.1 µM. Besides, the Ratio in series [3] is 14.
